Results on 22 compounds are retold here after patent US9422292B2, “Bromodomain inhibitors and uses thereof” (Constellation Pharmaceuticals, Inc., priority 2011, dated 2016).

In assay [1] the test system is IL-6 secretion in THP-1 cells. The experiment in a line: Cell-based IL-6 quantification assay (ELISA, Mesoscale) in LPS-treated THP-1 cells. The following applies: Homo sapiens, LPS 4 μg/mL, 16 h, ELISA value/CellTiter-Glo ratio. As to the method: C. Cell-Based IL-6 Quantification Assay (ELISA, Mesoscale Assay):
100,000 THP-1 cells were seeded in RPMI1640-10% FBS in 96-well plates. LPS (E. Coli Invitrogen) in RPMI−10% FBS at a final concentration of 4 μg/mL was added to the wells and the cells are then incubated in the presence of various concentrations of compounds for 16 h. Plates are spun ([…], 5 min), an aliquot of 25 uL supernatant is transferred in to an ELISA plate (Mesoscale technology, MSD) and the detection of IL-6 is performed using manufacturer's instructions. The amount of cells in each well is assessed using CellTiter-Glo® (Promega). The ratio of ELISA value/CellTiter-Glo value is used to calculate the percent of inhibition of IL-6 secretion.

The target of assay [2] is T1, BRD4 (BD1) (Homo sapiens, UniProt O60885).
T1 construct: His; made in house
The experiment in a line: BRD4 AlphaLisa binding assay. As to the method: A. IC50 Measurements for Inhibitors Using BRD4 AlphaLisa Binding Assay.
Specifically, in a 384 well ProxiPlate BRD4 (BD1) (30 nM final) was combined with peptide (200 nM final) in 40 mM HEPES (pH 7.0), 40 mM NaCl, 1 mM DTT, 0.01% (w/v) BSA, and 0.008% (w/v) Brij-35 either in the presence of DMSO (final 1.2% DMSO) or compound dilution series in DMSO. After 20 minute incubation at room temperature Alpha streptavidin donor beads and AlphaLisa anti-Flag acceptor beads were added to a final concentration of 10 ug/mL each. After three hours equilibration plates were read on an Envision instrument and IC50s calculated using a four parameter non-linear curve fit.

Setting [3] is: BRD4 (BD1) 30 nM, biotinylated H4-tetraacetyl peptide 200 nM, read-out: BRD4 AlphaLisa.

pIC50: −log10 of the molar value. Read-outs that look alike come from different tables or passages of the source.

`Cc1nnc2n1-c1ccc(-c3ccccc3)cc1N(C)CC2` [Compound 4, 1,6-dimethyl-8-phenyl-5,6-dihydro-4H-benzo[b][1,2,4]triazolo[4,3-d][1,4]diazepine]: the pIC50 in assay [1] and in assay [2] (setting [3]) was less than 5.00 in each case.
For `Cc1nnc2n1-c1ccc(-c3ccc(N)nc3)cc1N(C)CC2` [Compound 5, 5-(1,6-dimethyl-5,6-dihydro-4H-benzo[b][1,2,4]triazolo[4,3-d][1,4]diazepin-8-yl)pyridin-2-amine], the pIC50 in assay [1] and in assay [2] (setting [3]) was 5.00 to 6.00 in each case.
`Cc1nnc2n1-c1ccc(-c3ccc(N)nc3)cc1NCC2` [Compound 6, 5-(1-methyl-5,6-dihydro-4H-benzo[b][1,2,4]triazolo[4,3-d][1,4]diazepin-8-yl)pyridin-2-amine]: the pIC50 in assay [1] was less than 5.00; in assay [2] (setting [3]) it was 5.00 to 6.00.
The matching figures for `Cc1nnc2n1-c1ccc(-c3ccccc3)cc1NCC2` [Compound 7, 1-methyl-8-phenyl-5,6-dihydro-4H-benzo[b][1,2,4]triazolo[4,3-d][1,4]diazepine]: less than 6.00 and less than 5.00.
With `Cc1nnc2n1-c1ccccc1N(c1ccc(Cl)cn1)CC2` [Compound 8, 6-(5-chloropyridin-2-yl)-1-methyl-5,6-dihydro-4H-benzo[b][1,2,4]triazolo[4,3-d][1,4]diazepine], the pIC50 in assay [1] and in assay [2] (setting [3]) was 5.00 to 6.00 throughout.
Turning to `Cc1nnc2n1-c1ccccc1N(c1ccc(Cl)cc1)CC2CCO` (stereo not shown) [Compound 9, 2-(6-(4-chlorophenyl)-1-methyl-5,6-dihydro-4H-benzo[b][1,2,4]triazolo[4,3-d][1,4]diazepin-4-yl)ethanol], the pIC50 in assay [1] and in assay [2] (setting [3]) was 5.00 to 6.00 each time.
In the case of `CCNC(=O)CC1CN(c2ccc(Cl)cc2)c2ccccc2-n2c(C)nnc21` (stereo not shown) [Compound 10, 2-(6-(4-chlorophenyl)-1-methyl-5,6-dihydro-4H-benzo[b][1,2,4]triazolo[4,3-d][1,4]diazepin-4-yl)-N-ethylacetamide], the pIC50 in assay [1] and in assay [2] (setting [3]) was 5.00 to 6.00 each time.
In the case of `Cc1nnc2n1-c1ccccc1N(c1ccc(Cl)cc1)CC21CC1CO` (stereo not shown) [Compound 11, (6-(4-chlorophenyl)-1-methyl-5,6-dihydrospiro[benzo[b][1,2,4]triazolo[4,3-d][1,4]diazepine-4,1′-cyclopropan]-2′-yl)methanol], the pIC50 in assay [1] and in assay [2] (setting [3]) was 5.00 to 6.00 in each case.
As to `Cc1nnc2n1-c1ccccc1NC(C)C2` (stereo not shown) [Compound 12, 1,5-dimethyl-5,6-dihydro-4H-benzo[b][1,2,4]triazolo[4,3-d][1,4]diazepine], the pIC50 in assay [1] and in assay [2] (setting [3]) was less than 5.00 each time.
In the case of `Cc1nnc2n1-c1ccc(Br)cc1N(c1ccc(Cl)cc1)CC2` [Compound 13, 8-bromo-6-(4-chlorophenyl)-1-methyl-5,6-dihydro-4H-benzo[b][1,2,4]triazolo[4,3-d][1,4]diazepine], the pIC50 in assay [1] and in assay [2] (setting [3]) was 6.00 to 7.00 in each case.
Consider `Cc1nnc2n1-c1ccc(-c3ccccc3)cc1N(c1ccc(Cl)cc1)CC2` [Compound 14, 6-(4-chlorophenyl)-1-methyl-8-phenyl-5,6-dihydro-4H-benzo[b][1,2,4]triazolo[4,3-d][1,4]diazepine], for which the figures for the pIC50 in assay [1] and in assay [2] (setting [3]) were 5.00 to 6.00 and 6.00 to 7.00, respectively.
`Cc1nnc2n1-c1ccc(-c3cnn(C)c3)cc1N(c1ccc(Cl)cc1)CC2` [Compound 30, 4H-[1,2,4]triazolo[4,3-a][1,5]benzodiazepine,5,6-dihydro-1methyl-8-(1-methyl-1H-pyrazol-4-yl)-6-(4-chloro-phenyl)]: in assay [2] (setting [3]), the pIC50 is more than 7.00.
The same measure, in the same setting: next, `Cc1nnc2n1-c1ccc(C#CC(C)(C)N)cc1N(c1ccc(Cl)cc1)CC2C` (stereo not shown) [Compound 31, 4H-[1,2,4]triazolo[4,3-a][1,5]benzodiazepine,5,6-dihydro-1,4-dimethyl-8-(3-amino-3-methylbut-1-ynyll)-6-(4-chloro-phenyl)]: 6.00 to 7.00.
In assay [2], `CCC1CN(c2ccc(Cl)cc2)c2ccccc2-n2c(C)nnc21` (stereo not shown) [Compound 32] had a pIC50 of 5.00 to 6.00.
Consider `Cc1nnc2n1-c1ccc(Br)cc1N(c1ccc(Cl)cc1)CC21CC1` [Compound 33, 8-bromo-6-(4-chlorophenyl)-1-methyl-5,6-dihydrospiro[benzo[b][1,2,4]triazolo[4,3-d][1,4]diazepine-4,1′-cyclopropane]], for which, in assay [2] (setting [3]), the pIC50 was 6.00 to 7.00.
Consider `Cc1nnc2n1-c1ccccc1N(c1ccc(Cl)cc1)CC21CC1` [Compound 34, 6-(4-chlorophenyl)-1-methyl-5,6-dihydrospiro[benzo[b][1,2,4]triazolo[4,3-d][1,4]diazepine-4,1′-cyclopropane]], for which the pIC50 in assay [2] (setting [3]) is 6.00 to 7.00.
Take `Cc1nnc2n1-c1cc(F)ccc1N(c1ccc(Cl)cc1)CC2C` (stereo not shown) [Compound 35, 4H-[1,2,4]triazolo[4,3-a][1,5]benzodiazepine,5,6-dihydro-1,4-dimethyl-9-fluoro-6-(4-chloro-phenyl)]: the pIC50 in assay [2] (setting [3]) is 6.00 to 7.00.
For `Cc1nnc2n1-c1ccc(C#CC(C)(C)O)cc1N(c1ccc(Cl)cc1)CC2C` (stereo not shown) [Compound 36, 4H-[1,2,4]triazolo[4,3-a][1,5]benzodiazepine,5,6-dihydro-1,4-dimethyl-8-(3-hydroxy-3-methylbut-1-ynyl)-6-(4-chloro-phenyl)], the pIC50 in assay [2] (setting [3]) was 6.00 to 7.00.
Take `Cc1nnc2n1-c1ccc(-c3cnc(N)nc3)cc1N(c1ccc(Cl)cc1)C[C@@H]2C` [Compound 40, (S)-4H-[1,2,4]triazolo[4,3-a][1,5]benzodiaze-pine,5,6-dihydro-1,4-dimethyl-8-(2-aminopyrimidin-5-yl)-6-(4-chloro-phenyl)]: the values for the pIC50 in assay [1] and in assay [2] (setting [3]) were less than 6.00 and 5.00 to 6.00, respectively.
`Cc1nnc2n1-c1ccc(-c3cnn(C)c3)cc1N(c1ccc(C#N)cc1)C[C@@H]2C` [Compound 45, (S)-4H-[1,2,4]triazolo[4,3-a][1,5]benzodiazepine,5,6-dihydro-1,4-dimethyl-8-(1-methyl-1H-pyrazol-4-yl)-6-(4-cyano-phenyl)]: the pIC50 in assay [1] is less than 6.00; in assay [2] (setting [3]) it was 6.00 to 7.00.
On to `Cc1nnc2n1-c1ccc(C(=O)N3CCOCC3)cc1N(c1ccc(Cl)cc1)C[C@H]2C` [Compound 56, 4-R-4H-[1,2,4]triazolo[4,3-a][1,5]benzodiazepine,5,6-dihydro-1,4-dimethyl-8-(morpholine-4-carbonyl)-6-(4-chloro-phenyl)], for which the figures for the pIC50 in assay [1] and in assay [2] (setting [3]) were less than 6.00 and 6.00 to 7.00, respectively.
With `Cc1nnc2n1-c1ccc(-c3cnn(C)n3)cc1N(c1ccc(C#N)cc1)C[C@@H]2C` [Compound 74, (R)-4H-[1,2,4]Triazolo[4,3-a][1,5]benzodiazepine, 5,6-dihydro-1,4-dimethyl-8-(2-methyl-2H-1,2,3-triazole-4-yl)-6-(4-cyano-phenyl)], the pIC50 is less than 6.00 in assay [1] and 6.00 to 7.00 in assay [2] (setting [3]).
